# Results reported in patent US9936701B2, “Herbicidal compounds” (Syngenta Participations AG, priority 2013, dated 2018).
# Test system: a variety of test species
# Test: Post-emergence herbicidal activity (glasshouse, sprayed after 8 days cultivation, evaluated after 13 days)
# Type: in vivo
# Set-up: key: 5=total damage to plant; 0=no damage to plant
# Conditions: Abutilon theophrasti, rate 1000 g/Ha, scale 0-5
# Method in brief: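 Visual herbicidal injury (0 = no damage, 5 = plant killed) recorded 13 days post-treatment. Treatment consisted of a single spray onto emerged seedlings at day 8; conditions before and after were 24/16 °C, 14 h light, 65% humidity.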
row,Compound,"ABUTH (Abutilon theophrasti) damage score, application post-emergence"
1,CC(C)(C)c1cc(N2C(=O)C(Cl)=C(NC3CC3)C2O)no1 (centres unmarked) [C8],5
2,"COC1=C(C)C(O)N(c2cc(C(C)(C)C)on2)C1=O (centres unmarked) [D1, 1-(5-tert-butylisoxazol-3-yl)-2-hydroxy-4-methoxy-3-methyl-2H-pyrrol-5-one]",5
3,"COC1=C(C)C(O)N(c2noc(C(C)(C)C)c2C#N)C1=O (centres unmarked) [D2, 5-tert-butyl-3-(2-hydroxy-4-methoxy-3-methyl-5-oxo-2H-pyrrol-1-yl)isoxazole-4-carbonitrile]",5
4,COC1=C(C)C(O)N(c2noc(C(C)C)c2C#N)C1=O (centres unmarked) [D3],5
5,COC1=C(C)C(O)N(c2cc(C(C)(C)C#N)on2)C1=O (centres unmarked) [D4],5

# Same assay, conditions: Alopecurus myosuroides, rate 1000 g/Ha, scale 0-5
row,Compound,"ALOMY (Alopecurus myosuroides) damage score, application post-emergence"
1,CC(C)(C)c1cc(N2C(=O)C(Cl)=C(NC3CC3)C2O)no1 (centres unmarked) [C8],4
2,"COC1=C(C)C(O)N(c2cc(C(C)(C)C)on2)C1=O (centres unmarked) [D1, 1-(5-tert-butylisoxazol-3-yl)-2-hydroxy-4-methoxy-3-methyl-2H-pyrrol-5-one]",4
3,"COC1=C(C)C(O)N(c2noc(C(C)(C)C)c2C#N)C1=O (centres unmarked) [D2, 5-tert-butyl-3-(2-hydroxy-4-methoxy-3-methyl-5-oxo-2H-pyrrol-1-yl)isoxazole-4-carbonitrile]",5
4,COC1=C(C)C(O)N(c2noc(C(C)C)c2C#N)C1=O (centres unmarked) [D3],5
5,COC1=C(C)C(O)N(c2cc(C(C)(C)C#N)on2)C1=O (centres unmarked) [D4],5

# Same assay, conditions: Amaranthus retroflexus, rate 1000 g/Ha, scale 0-5
row,Compound,"AMARE (Amaranthus retroflexus) damage score, application post-emergence"
1,CC(C)(C)c1cc(N2C(=O)C(Cl)=C(NC3CC3)C2O)no1 (centres unmarked) [C8],5
2,"COC1=C(C)C(O)N(c2cc(C(C)(C)C)on2)C1=O (centres unmarked) [D1, 1-(5-tert-butylisoxazol-3-yl)-2-hydroxy-4-methoxy-3-methyl-2H-pyrrol-5-one]",5
3,"COC1=C(C)C(O)N(c2noc(C(C)(C)C)c2C#N)C1=O (centres unmarked) [D2, 5-tert-butyl-3-(2-hydroxy-4-methoxy-3-methyl-5-oxo-2H-pyrrol-1-yl)isoxazole-4-carbonitrile]",5
4,COC1=C(C)C(O)N(c2noc(C(C)C)c2C#N)C1=O (centres unmarked) [D3],5
5,COC1=C(C)C(O)N(c2cc(C(C)(C)C#N)on2)C1=O (centres unmarked) [D4],5

# Same assay, conditions: Echinochloa crus-galli, rate 1000 g/Ha, scale 0-5
row,Compound,"ECHCG (Echinochloa crus-galli) damage score, application post-emergence"
1,CC(C)(C)c1cc(N2C(=O)C(Cl)=C(NC3CC3)C2O)no1 (centres unmarked) [C8],5
2,"COC1=C(C)C(O)N(c2cc(C(C)(C)C)on2)C1=O (centres unmarked) [D1, 1-(5-tert-butylisoxazol-3-yl)-2-hydroxy-4-methoxy-3-methyl-2H-pyrrol-5-one]",5
3,"COC1=C(C)C(O)N(c2noc(C(C)(C)C)c2C#N)C1=O (centres unmarked) [D2, 5-tert-butyl-3-(2-hydroxy-4-methoxy-3-methyl-5-oxo-2H-pyrrol-1-yl)isoxazole-4-carbonitrile]",5
4,COC1=C(C)C(O)N(c2noc(C(C)C)c2C#N)C1=O (centres unmarked) [D3],5
5,COC1=C(C)C(O)N(c2cc(C(C)(C)C#N)on2)C1=O (centres unmarked) [D4],5

# Same assay, conditions: Setaria faberi, rate 1000 g/Ha, scale 0-5
row,Compound,"SETFA (Setaria faberi) damage score, application post-emergence"
1,CC(C)(C)c1cc(N2C(=O)C(Cl)=C(NC3CC3)C2O)no1 (centres unmarked) [C8],5
2,"COC1=C(C)C(O)N(c2cc(C(C)(C)C)on2)C1=O (centres unmarked) [D1, 1-(5-tert-butylisoxazol-3-yl)-2-hydroxy-4-methoxy-3-methyl-2H-pyrrol-5-one]",5
3,"COC1=C(C)C(O)N(c2noc(C(C)(C)C)c2C#N)C1=O (centres unmarked) [D2, 5-tert-butyl-3-(2-hydroxy-4-methoxy-3-methyl-5-oxo-2H-pyrrol-1-yl)isoxazole-4-carbonitrile]",5
4,COC1=C(C)C(O)N(c2noc(C(C)C)c2C#N)C1=O (centres unmarked) [D3],5
5,COC1=C(C)C(O)N(c2cc(C(C)(C)C#N)on2)C1=O (centres unmarked) [D4],5

# Same assay, conditions: Zea mays, rate 1000 g/Ha, scale 0-5
row,Compound,"ZEAMX (Zea mays) damage score, application post-emergence"
1,CC(C)(C)c1cc(N2C(=O)C(Cl)=C(NC3CC3)C2O)no1 (centres unmarked) [C8],4
2,"COC1=C(C)C(O)N(c2cc(C(C)(C)C)on2)C1=O (centres unmarked) [D1, 1-(5-tert-butylisoxazol-3-yl)-2-hydroxy-4-methoxy-3-methyl-2H-pyrrol-5-one]",4
3,"COC1=C(C)C(O)N(c2noc(C(C)(C)C)c2C#N)C1=O (centres unmarked) [D2, 5-tert-butyl-3-(2-hydroxy-4-methoxy-3-methyl-5-oxo-2H-pyrrol-1-yl)isoxazole-4-carbonitrile]",4
4,COC1=C(C)C(O)N(c2noc(C(C)C)c2C#N)C1=O (centres unmarked) [D3],4
5,COC1=C(C)C(O)N(c2cc(C(C)(C)C#N)on2)C1=O (centres unmarked) [D4],5

# Test system: a variety of test species
# Test: Pre-emergence herbicidal activity (glasshouse, sprayed one day after sowing, evaluated after 13 days)
# Type: in vivo
# Set-up: key: 5=total damage to plant; 0=no damage to plant
# Conditions: ABUTH, application pre-emergence, rate 1000 g/Ha, scale 0-5
# Method in brief: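 Seeds sown in standard soil in pots, held one day in glasshouse (24/16 °C day/night, 14 h light, 65% humidity), then sprayed with aqueous solution of compound formulated in acetone/water 50:50 with 0.5% Tween 20. Grown on under same conditions, watered twice daily; damage scored after 13 days (0 = none, 5 = total).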
row,Compound,"Pre-emergence herbicidal damage score, ABUTH"
1,CC(C)(C)c1cc(N2C(=O)C(Cl)=C(NC3CC3)C2O)no1 (centres unmarked) [C8],5
2,"COC1=C(C)C(O)N(c2cc(C(C)(C)C)on2)C1=O (centres unmarked) [D1, 1-(5-tert-butylisoxazol-3-yl)-2-hydroxy-4-methoxy-3-methyl-2H-pyrrol-5-one]",5
3,"COC1=C(C)C(O)N(c2noc(C(C)(C)C)c2C#N)C1=O (centres unmarked) [D2, 5-tert-butyl-3-(2-hydroxy-4-methoxy-3-methyl-5-oxo-2H-pyrrol-1-yl)isoxazole-4-carbonitrile]",5
4,COC1=C(C)C(O)N(c2noc(C(C)C)c2C#N)C1=O (centres unmarked) [D3],4
5,COC1=C(C)C(O)N(c2cc(C(C)(C)C#N)on2)C1=O (centres unmarked) [D4],5

# Same assay, conditions: ALOMY, application pre-emergence, rate 1000 g/Ha, scale 0-5
row,Compound,"Pre-emergence herbicidal damage score, ALOMY"
1,CC(C)(C)c1cc(N2C(=O)C(Cl)=C(NC3CC3)C2O)no1 (centres unmarked) [C8],3
2,"COC1=C(C)C(O)N(c2cc(C(C)(C)C)on2)C1=O (centres unmarked) [D1, 1-(5-tert-butylisoxazol-3-yl)-2-hydroxy-4-methoxy-3-methyl-2H-pyrrol-5-one]",4
3,"COC1=C(C)C(O)N(c2noc(C(C)(C)C)c2C#N)C1=O (centres unmarked) [D2, 5-tert-butyl-3-(2-hydroxy-4-methoxy-3-methyl-5-oxo-2H-pyrrol-1-yl)isoxazole-4-carbonitrile]",3
4,COC1=C(C)C(O)N(c2noc(C(C)C)c2C#N)C1=O (centres unmarked) [D3],3
5,COC1=C(C)C(O)N(c2cc(C(C)(C)C#N)on2)C1=O (centres unmarked) [D4],4

# Same assay, conditions: AMARE, application pre-emergence, rate 1000 g/Ha, scale 0-5
row,Compound,"Pre-emergence herbicidal damage score, AMARE"
1,CC(C)(C)c1cc(N2C(=O)C(Cl)=C(NC3CC3)C2O)no1 (centres unmarked) [C8],5
2,"COC1=C(C)C(O)N(c2cc(C(C)(C)C)on2)C1=O (centres unmarked) [D1, 1-(5-tert-butylisoxazol-3-yl)-2-hydroxy-4-methoxy-3-methyl-2H-pyrrol-5-one]",5
3,"COC1=C(C)C(O)N(c2noc(C(C)(C)C)c2C#N)C1=O (centres unmarked) [D2, 5-tert-butyl-3-(2-hydroxy-4-methoxy-3-methyl-5-oxo-2H-pyrrol-1-yl)isoxazole-4-carbonitrile]",5
4,COC1=C(C)C(O)N(c2noc(C(C)C)c2C#N)C1=O (centres unmarked) [D3],5
5,COC1=C(C)C(O)N(c2cc(C(C)(C)C#N)on2)C1=O (centres unmarked) [D4],5

# Same assay, conditions: ECHCG, application pre-emergence, rate 1000 g/Ha, scale 0-5
row,Compound,"Pre-emergence herbicidal damage score, ECHCG"
1,CC(C)(C)c1cc(N2C(=O)C(Cl)=C(NC3CC3)C2O)no1 (centres unmarked) [C8],5
2,"COC1=C(C)C(O)N(c2cc(C(C)(C)C)on2)C1=O (centres unmarked) [D1, 1-(5-tert-butylisoxazol-3-yl)-2-hydroxy-4-methoxy-3-methyl-2H-pyrrol-5-one]",4
3,"COC1=C(C)C(O)N(c2noc(C(C)(C)C)c2C#N)C1=O (centres unmarked) [D2, 5-tert-butyl-3-(2-hydroxy-4-methoxy-3-methyl-5-oxo-2H-pyrrol-1-yl)isoxazole-4-carbonitrile]",4
4,COC1=C(C)C(O)N(c2noc(C(C)C)c2C#N)C1=O (centres unmarked) [D3],5
5,COC1=C(C)C(O)N(c2cc(C(C)(C)C#N)on2)C1=O (centres unmarked) [D4],5

# Same assay, conditions: SETFA, application pre-emergence, rate 1000 g/Ha, scale 0-5
row,Compound,"Pre-emergence herbicidal damage score, SETFA"
1,CC(C)(C)c1cc(N2C(=O)C(Cl)=C(NC3CC3)C2O)no1 (centres unmarked) [C8],3
2,"COC1=C(C)C(O)N(c2cc(C(C)(C)C)on2)C1=O (centres unmarked) [D1, 1-(5-tert-butylisoxazol-3-yl)-2-hydroxy-4-methoxy-3-methyl-2H-pyrrol-5-one]",5
3,"COC1=C(C)C(O)N(c2noc(C(C)(C)C)c2C#N)C1=O (centres unmarked) [D2, 5-tert-butyl-3-(2-hydroxy-4-methoxy-3-methyl-5-oxo-2H-pyrrol-1-yl)isoxazole-4-carbonitrile]",5
4,COC1=C(C)C(O)N(c2noc(C(C)C)c2C#N)C1=O (centres unmarked) [D3],5
5,COC1=C(C)C(O)N(c2cc(C(C)(C)C#N)on2)C1=O (centres unmarked) [D4],5

# Same assay, conditions: ZEAMX, application pre-emergence, rate 1000 g/Ha, scale 0-5
row,Compound,"Pre-emergence herbicidal damage score, ZEAMX"
1,CC(C)(C)c1cc(N2C(=O)C(Cl)=C(NC3CC3)C2O)no1 (centres unmarked) [C8],2
2,"COC1=C(C)C(O)N(c2cc(C(C)(C)C)on2)C1=O (centres unmarked) [D1, 1-(5-tert-butylisoxazol-3-yl)-2-hydroxy-4-methoxy-3-methyl-2H-pyrrol-5-one]",2
3,"COC1=C(C)C(O)N(c2noc(C(C)(C)C)c2C#N)C1=O (centres unmarked) [D2, 5-tert-butyl-3-(2-hydroxy-4-methoxy-3-methyl-5-oxo-2H-pyrrol-1-yl)isoxazole-4-carbonitrile]",3
4,COC1=C(C)C(O)N(c2noc(C(C)C)c2C#N)C1=O (centres unmarked) [D3],2
5,COC1=C(C)C(O)N(c2cc(C(C)(C)C#N)on2)C1=O (centres unmarked) [D4],3

# Test system: not given
# Test: not given
# Conditions: not given
row,Compound,melting point
1,CC(C)(C)c1cc(N2C(=O)C(Cl)=C(NC3CC3)C2O)no1 (centres unmarked) [C8],179 to 180 °C
2,"COC1=C(C)C(O)N(c2cc(C(C)(C)C)on2)C1=O (centres unmarked) [D1, 1-(5-tert-butylisoxazol-3-yl)-2-hydroxy-4-methoxy-3-methyl-2H-pyrrol-5-one]",82 to 95 °C
3,"COC1=C(C)C(O)N(c2noc(C(C)(C)C)c2C#N)C1=O (centres unmarked) [D2, 5-tert-butyl-3-(2-hydroxy-4-methoxy-3-methyl-5-oxo-2H-pyrrol-1-yl)isoxazole-4-carbonitrile]",98 to 100 °C
4,COC1=C(C)C(O)N(c2noc(C(C)C)c2C#N)C1=O (centres unmarked) [D3],99 to 101 °C
5,COC1=C(C)C(O)N(c2cc(C(C)(C)C#N)on2)C1=O (centres unmarked) [D4],123 to 125 °C
